{
  "source": "patent US20120157405A1",
  "about": "“Methods and Compositions for the Treatment of \"Burning Feet Syndrome\"” (priority 2010, published 2012)",
  "origin": "cited, not measured here",
  "key": {"[1]": {"test_system": "symptomatic diabetic polyneuropathy"}, "diabetic neuropathy [2]": {"test_system": "diabetic neuropathy", "details": "double-blind trial"}, "neuropathic pain": {"test_system": "neuropathic pain", "details": "double-blind study"}, "[3]": {"test_system": "symptomatic diabetic polyneuropathy", "details": "symptomatic diabetic polyneuropathy and compressive radiculopathy syndrome from disc-nerve root conflict"}, "mild diabetic neuropathy": {"test_system": "mild diabetic neuropathy", "details": "480 mg daily, after 12 months"}, "[4]": {"test_system": "Diabetes-Induced Oxidative Stress In Gastrointestinal Tissues", "details": "exogenously administered, diabetic rats"}, "[5]": {"test_system": "jejunal transport of water, Na and Cl", "details": "in vivo jejunal perfusion"}, "[6]": {"test_system": "streptozotocin-induced diabetic rats", "details": "1.4 to 1.5 g/kg body weight, 7 weeks"}, "diabetic neuropathy [7]": {"test_system": "diabetic neuropathy", "details": "animal studies"}, "[8]": {"test_system": "sciatic pain caused by herniated disc"}, "[9]": {"test_system": "neuropathy associated with diabetes"}, "[10]": {"test_system": "chemically induced diabetic rats"}, "[11]": {"test_system": "neuropathy associated with some chemotherapy drugs", "details": "two studies"}, "diabetic neuropathy [12]": {"test_system": "diabetic neuropathy", "details": "over a one-year period"}, "[13]": {"test_system": "cardiac autonomic neuropathy", "details": "people with diabetes"}, "[14]": {"test_system": "painful peripheral diabetic neuropathy", "details": "320 mg/day compared to 150 mg/day, over 6 weeks"}, "[15]": {"test_system": "severe diabetic peripheral neuropathy"}, "skin irritation": {"test_system": "skin irritation", "details": "topical adjunct skin care"}, "[16]": {"test_system": "peripheral neuropathy symptoms", "details": "niacin alone"}, "“Burning Feet Syndrome” [17]": {"test_system": "“Burning Feet Syndrome”", "details": "53 cases; parenteral calcium pantothenate given after the other vitamins"}, "“Burning Feet Syndrome” [18]": {"test_system": "“Burning Feet Syndrome”", "details": "6 mg intramuscular injections"}, "[19]": {"test_system": "complications among the major targets of diabetes", "details": "in vivo"}, "vitamin B12 deficiency": {"test_system": "vitamin B12 deficiency", "details": "oral supplementation only"}, "peripheral neuropathy": {"test_system": "peripheral neuropathy", "details": "daily high-dose supplementation for two years, person"}, "[20]": {"test_system": "nerve conduction and function", "details": "900 mg, six-month study"}, "[21]": {"details": "after one year of treatment, all patients"}},
  "note": "Read-outs that look alike come from different tables or passages of the source.",
  "data": [
    {"compound": "O=C(O)CCCCC1CCSS1", "note": "(stereo not drawn) [Alpha-lipoic acid]", "values": [
      {"measurement": "time at which TSS improvement was noted", "setting": "[1]; oral 600 milligrams and 1200 milligrams", "result": 2, "unit": "weeks"},
      {"measurement": "side effects", "setting": "[1]; oral 600 to 1800 milligrams", "result": "dose-dependent increase in the incidence of nausea"},
      {"measurement": "time at which TSS improvement was noted", "setting": "[1]; oral 1800 milligrams", "result": "the end of the first week"},
      {"measurement": "Total Symptom Score (TSS)", "setting": "[1]; oral therapy, 600 to 1800 milligrams", "result": "significant improvement"},
      {"measurement": "sensory symptoms and pain of diabetic neuropathy", "setting": "diabetic neuropathy [2]", "result": "rapidly and significantly reduces sensory symptoms and pain of diabetic neuropathy"},
      {"measurement": "nerve functionality and neuropathic pain", "setting": "neuropathic pain", "result": "helped the recovery of nerve functionality and decrease neuropathic pain"},
      {"measurement": "pain, paresthesia, and numbness", "setting": "[3]", "result": "reduced the pain, paresthesia, and numbness"},
      {"measurement": "acute microcirculation occlusion", "setting": "microcirculation; in vivo", "result": "significantly improve"},
      {"measurement": "microcirculation", "setting": "microcirculation; patients with diabetic polyneuropathy", "result": "significant improvement in microcirculation"}
    ]},
    {"compound": "CCCCC/C=C\\C/C=C\\C/C=C\\CCCCC(=O)O", "note": "[GLA, gamma linolenic acid]", "values": [
      {"measurement": "outcome versus placebo group", "setting": "mild diabetic neuropathy", "result": "significantly better than the placebo group"}
    ]},
    {"compound": "N=C(N)NCCC[C@H](N)C(=O)O", "note": "[L-arginine]", "values": [
      {"measurement": "oxidative stress in the gastrointestinal tract", "setting": "[4]", "result": "decrease the oxidative stress in the gastrointestinal tract"},
      {"measurement": "jejunal transport of water, Na and Cl", "setting": "[5]", "result": "dose-dependent pro-secretor effect"}
    ]},
    {"compound": "CC(=O)N[C@@H](CS)C(=O)O", "note": "[NAC, N-Acetylcysteine]", "values": [
      {"measurement": "effect on diabetic neuropathy", "setting": "[6]", "result": "protective effects"},
      {"measurement": "neuropathy", "setting": "diabetic neuropathy [7]", "result": "can inhibit diabetic neuropathy and protect against neuropathies caused by chemotherapy drugs"}
    ]},
    {"compound": "O=C(O)CCCCC1CCSS1", "note": "(centres unmarked) [Thioctic acid]", "values": [
      {"measurement": "treatment of sciatic pain", "setting": "[8]", "result": "appears to be effective"}
    ]},
    {"compound": "CC(=O)O[C@H](CC(=O)[O-])C[N+](C)(C)C", "note": "[acetyl-L-carnitine]", "values": [
      {"measurement": "sural nerve fiber numbers and regenerating nerve fiber clusters", "setting": "[9]; 52 weeks", "result": "significant improvement"},
      {"measurement": "vibratory perception", "setting": "[9]; both studies", "result": "improved"},
      {"measurement": "pain", "setting": "[9]; daily doses of 500 mg and 1000 mg, 52 weeks", "result": "significant reductions in pain"},
      {"measurement": "nerve dysfunctions", "setting": "[10]", "result": "A number of nerve dysfunctions were corrected"},
      {"measurement": "chemotherapy-associated neuropathy", "setting": "[11]", "result": "can limit the neuropathy"},
      {"measurement": "effects on glucose, insulin, or free fatty acids levels", "setting": "diabetic animals; diabetic animals", "result": "without any adverse effects"},
      {"measurement": "nerve conduction velocity", "setting": "diabetic animals; diabetic animals", "result": "maintained near normal nerve conduction velocity"},
      {"measurement": "nerve regeneration", "setting": "diabetic animals; diabetic nerve degeneration and neuropathy, after experimental injury", "result": "accelerated nerve regeneration"},
      {"measurement": "nerve conduction velocity and pain", "setting": "diabetic neuropathy [12]", "result": "improved nerve conduction velocity and reduced pain"},
      {"measurement": "cardiac autonomic neuropathy", "setting": "[13]", "result": "appeared to help prevent or slow cardiac autonomic neuropathy"}
    ]},
    {"compound": "C/C(=C(\\CCOP(=O)(O)O)SC(=O)c1ccccc1)N(C=O)Cc1cnc(C)nc1N", "note": "[benfotiamine]", "values": [
      {"measurement": "alcoholic polyneuropathy", "setting": "alcoholic polyneuropathy; benfotiamine versus combination with vitamin B6 and B12", "result": "significant improvement"},
      {"measurement": "adverse effects", "setting": "alcoholic polyneuropathy; double-blind study", "result": "no therapy-specific adverse effects"},
      {"measurement": "pain and co-ordination", "setting": "alcoholic polyneuropathy; double-blind study", "result": "improvement was evident"},
      {"measurement": "therapeutic effectiveness", "setting": "[14]", "result": "most effective in large doses"}
    ]},
    {"compound": "O=C(O)CCCC[C@@H]1SC[C@@H]2NC(=O)N[C@@H]21", "note": "[biotin]", "values": [
      {"measurement": "paresthesias", "setting": "[15]; [21]", "result": "free of paresthesias"},
      {"measurement": "walking distance without help", "setting": "[15]; [21]", "result": "more than 300 meters"},
      {"measurement": "symptoms of peripheral neuropathy", "setting": "[15]; within four to eight weeks after biotin administration", "result": "objective improvement"}
    ]},
    {"compound": "COc1cc(/C=C/C(=O)CC(=O)/C=C/c2ccc(O)c(OC)c2)ccc1O", "note": "[curcumin]", "values": [
      {"measurement": "intracellular superoxide anion (O2) production", "setting": "DM arterioles; DM arterioles, hydroethidine probe, low or high doses", "result": "significantly reduced"},
      {"measurement": "diabetes-induced vascular PKC-β11 expression", "setting": "DM arterioles; high dose", "result": "diminished"},
      {"measurement": "Acetylcholine (ACh) responses", "setting": "DM arterioles; low and high doses (30 and 300 mg/kg)", "result": "significantly improved"}
    ]},
    {"compound": "CC(C)(CO)[C@@H](O)C(=O)NCCCO", "note": "[dexpanthenol]", "values": [
      {"measurement": "symptoms of skin irritation (dryness, roughness, scaling, pruritus, erythema, erosion/fissure)", "setting": "skin irritation", "result": "considerably improves symptoms of skin irritation"}
    ]},
    {"compound": "O=C(O)c1cccnc1", "note": "[niacin]", "values": [
      {"measurement": "peripheral neuropathy symptoms", "setting": "[16]", "result": "does not help peripheral neuropathy symptoms"}
    ]},
    {"compound": "O=C(O)c1cccnc1", "note": "[nicotinic acid]", "values": [
      {"measurement": "outcome of treatment of “Burning Feet Syndrome”", "setting": "“Burning Feet Syndrome” [17]", "result": "failed"}
    ]},
    {"compound": "Cc1cc2nc3c(=O)[nH]c(=O)nc-3n(C[C@H](O)[C@H](O)[C@H](O)CO)c2cc1C", "note": "[riboflavin]", "values": [
      {"measurement": "outcome of treatment of “Burning Feet Syndrome”", "setting": "“Burning Feet Syndrome” [17]", "result": "failed"},
      {"measurement": "adverse reactions", "setting": "“Burning Feet Syndrome” [18]", "result": "no reported adverse reactions"},
      {"measurement": "time until the burning pain subsided", "setting": "“Burning Feet Syndrome” [18]", "result": "≤ 3", "unit": "days"}
    ]},
    {"compound": "NCCS(=O)(=O)O", "note": "[taurine]", "values": [
      {"measurement": "severity of complications of diabetes (retina, neuron, kidney)", "setting": "[19]", "result": "diminishes the severity of complications"}
    ]},
    {"compound": "Cc1ncc(C[n+]2csc(CCO)c2C)c(N)n1", "note": "[thiamine]", "values": [
      {"measurement": "outcome of treatment of “Burning Feet Syndrome”", "setting": "“Burning Feet Syndrome” [17]", "result": "failed"}
    ]},
    {"compound": "calcium pantothenate", "values": [
      {"measurement": "outcome of treatment of “Burning Feet Syndrome”", "setting": "“Burning Feet Syndrome” [17]", "result": "cure"}
    ]},
    {"compound": "vitamin B12", "values": [
      {"measurement": "patients with low B12 levels whose deficiency was corrected", "setting": "vitamin B12 deficiency", "result": "~50", "unit": "%"}
    ]},
    {"compound": "vitamin E", "values": [
      {"measurement": "disease progression and neuropathy", "setting": "peripheral neuropathy", "result": "slowed disease progression and produced significant improvement in their neuropathy"},
      {"measurement": "nerve conduction", "setting": "[20]", "result": "mild to moderate defective nerve conduction was improved"}
    ]}
  ]
}
